Like-named read-outs stand apart in the source and are kept apart here.
Key:
[1] = tested on: HCT-116 human colorectal carcinoma cells; experiment: Cell proliferation assay, Alamar Blue, HCT-116; type: cell-based;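 further: cells exposed to compound for about 4 days, then Alamar Blue added and fluorescence read after about 4 h, medium-only wells as control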
PARP = PARP (Homo sapiens (Human), UniProt P09874); experiment: PARP assay (chemiluminescent PARP assay kit, Trevigen); type: biochemical; conditions: for inhibition at 20 µM: read-out: PARP % inhib @ 20 uM
Chain of PARP (P09874 whole entry): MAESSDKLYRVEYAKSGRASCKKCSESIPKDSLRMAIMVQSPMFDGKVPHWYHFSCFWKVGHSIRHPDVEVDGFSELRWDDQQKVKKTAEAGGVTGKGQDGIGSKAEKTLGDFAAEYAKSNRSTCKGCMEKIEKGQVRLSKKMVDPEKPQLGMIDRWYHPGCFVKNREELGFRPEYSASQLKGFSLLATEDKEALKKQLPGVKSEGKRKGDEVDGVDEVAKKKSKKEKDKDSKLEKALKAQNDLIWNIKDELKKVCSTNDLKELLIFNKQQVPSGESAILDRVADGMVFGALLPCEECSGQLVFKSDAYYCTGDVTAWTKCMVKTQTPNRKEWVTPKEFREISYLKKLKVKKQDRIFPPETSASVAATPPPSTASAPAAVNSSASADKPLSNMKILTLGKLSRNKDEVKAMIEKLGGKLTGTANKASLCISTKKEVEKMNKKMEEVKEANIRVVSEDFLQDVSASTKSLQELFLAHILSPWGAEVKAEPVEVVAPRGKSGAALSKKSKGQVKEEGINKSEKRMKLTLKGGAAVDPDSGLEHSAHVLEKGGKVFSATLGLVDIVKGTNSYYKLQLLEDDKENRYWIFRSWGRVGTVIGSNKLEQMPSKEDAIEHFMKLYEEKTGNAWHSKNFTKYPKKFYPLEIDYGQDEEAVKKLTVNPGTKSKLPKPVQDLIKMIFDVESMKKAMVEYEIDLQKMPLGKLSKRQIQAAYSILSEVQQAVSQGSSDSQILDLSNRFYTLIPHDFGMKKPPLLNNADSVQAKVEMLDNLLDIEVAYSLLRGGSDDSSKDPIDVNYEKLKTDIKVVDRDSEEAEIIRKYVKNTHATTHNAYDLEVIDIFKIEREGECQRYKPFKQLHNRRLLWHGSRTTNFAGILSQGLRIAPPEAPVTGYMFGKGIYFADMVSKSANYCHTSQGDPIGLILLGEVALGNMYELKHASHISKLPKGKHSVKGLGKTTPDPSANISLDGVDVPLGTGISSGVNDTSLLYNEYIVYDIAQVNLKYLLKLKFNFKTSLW
Description: Modulatory activity of compounds described herein was assessed in vitro in cell-free CK2 assays. Modulatory activity of compounds described herein also are assessed in vitro in cell-free PARP assays. These assays are described hereafter.
PARP assays are conducted using a chemiluminescent PARP assay kit (Trevigen). Briefly, reactions are performed in Histone-coated strip wells, by adding 10 microliters test compound dissolved in 1×PARP Buffer (prepared by mixing 20×PARP buffer diluted with high-purity water) and 15 microliters diluted PARP-HSA enzyme (diluted in 1× PARP buffer, 0.1 unit per well) to 25 microliters PARP cocktail (prepared from 10×PARP cocktail and 10× activated DNA, both 2.5 microliters per well and 20 microliters per well of 1×PARP buffer). The reactions are incubated at ambient temperature for 60 minutes, then the liquid was removed. After washing the wells four times with PBS (200 ul), 50 microliters of STREP-HRP (Horseradish Peroxidase) solution (diluted 500-fold in 1× Strep-Diluent) was added and the reactions were allowed to incubate for 30 minutes at ambient temperature. The liquid was removed and, after washing the wells four times with PBS (200 ul), 50 microliters each of PeroxyGlo A and B (Chemiluminescent Horseradish Peroxidase substrates) are added and the resulting chemiluminescence quantified on the SpectraMax M5 plate reader.

[2] = HCT-116, Table 16, first HCT-116 column
[3] = 1 uM, Table 12, read-out: PARP % inhib @ 1 uM
[4] = HCT-116, Table 16, second HCT-116 column
[5] = at 1 μM, Table 10, read-out: PARP Inhibition %

COc1ccc(Nc2nc3cc(-c4nnn[nH]4)ccc3c3sccc23)cc1Cl
IC50 [1, 2]: > 10 µM

O=C(NCCc1ccccc1)c1ccc2c(c1)[nH]c(=O)c1ccsc12
inhibition at 1 µM (PARP; [3]): 64%
IC50 (PARP; Table 12): 0.5 µM

CC(C)(C)OC(=O)NC1CCN(C(=O)c2ccc3c(c2)[nH]c(=O)c2ccsc23)CC1
inhibition at 1 µM (PARP; [3]): 49%

Fc1ccc(Nc2nc3cc(-c4nnn[nH]4)ccc3c3sccc23)cc1Cl
IC50 [1, 2]: > 10 µM

COc1ccc(Nc2nc3cc(C(=O)O)ccc3c3sccc23)cc1Cl
IC50 [1, 2]: > 10 µM

O=C(NCCc1ccccn1)c1ccc2c(c1)[nH]c(=O)c1ccsc12
inhibition at 1 µM (PARP; [3]): 55%
inhibition at 20 µM (PARP; Table 12): 83%
IC50 (PARP; Table 12): 1 µM

CCc1cccc(Nc2nc3cc(-c4nnn[nH]4)ccc3c3sccc23)c1
IC50 [1, 4]: > 10 µM

O=C(O)c1ccc2c(c1)nc(NCCN1CCOCC1)c1ccsc12
IC50 [1, 2]: > 10 µM

CC(C)Oc1cccc(Nc2nc3cc(-c4nnn[nH]4)ccc3c3sccc23)c1
IC50 [1, 4]: > 10 µM

O=C(Nc1ccc(CN2CCS(=O)(=O)CC2)cc1)c1ccc2c(c1)[nH]c(=O)c1ccsc12
inhibition at 1 µM (PARP; [3]): 29%

O=c1[nH]c2ccccc2c2sccc12
inhibition at 20 µM (PARP; Table 12): 0%

CC(C)(C)OC(=O)N1CCN(C(=O)c2ccc3c(c2)[nH]c(=O)c2ccsc23)CC1
inhibition at 1 µM (PARP; [3]): 72%
IC50 (PARP; Table 12): 0.3 µM

N#Cc1ccc2c(c1)[nH]c(=O)c1ccsc12
inhibition at 1 µM (PARP; [3]): 51%
IC50 (PARP; Table 12): 0.5 µM

Cc1cc(CNC(=O)c2ccc3c(c2)[nH]c(=O)c2ccsc23)no1
inhibition at 1 µM (PARP; [3]): 67%
IC50 (PARP; Table 12): 0.5 µM

COc1ccc(NC(=O)c2ccc3c(c2)[nH]c(=O)c2ccsc23)c(OC)c1
inhibition at 1 µM (PARP; [3]): 0%
inhibition at 20 µM (PARP; Table 12): 32%

O=C(O)c1ccc2c(c1)nc(NCc1ccncc1)c1ccsc12
IC50 [1, 2]: > 10 µM

NC1CCN(C(=O)c2ccc3c(c2)[nH]c(=O)c2ccsc23)CC1
inhibition at 1 µM (PARP; [3]): 96%
IC50 (PARP; Table 12): 0.02 µM

O=c1c2ccccc2c2ccc(-c3nnn[nH]3)cc2n1CCCO
inhibition at 1 µM (PARP; [5]): 33%

CN(C)CCNc1nc2ccccc2c2sccc12
IC50 [1, 2]: 2 µM

O=C(c1ccc2c(c1)[nH]c(=O)c1ccsc12)N1CCOCC1
inhibition at 1 µM (PARP; [3]): 82%
inhibition at 20 µM (PARP; Table 12): 95%
IC50 (PARP; Table 12): 0.4 µM

O=C(NCc1ccccn1)c1ccc2c(c1)[nH]c(=O)c1ccsc12
inhibition at 1 µM (PARP; [3]): 71%
IC50 (PARP; Table 12): 1 µM

COc1ccccc1Nc1nc2cc(C(=O)O)ccc2c2sccc12
IC50 [1, 2]: > 10 µM

COc1ccc(CNC(=O)c2ccc3c(c2)[nH]c(=O)c2ccsc23)cc1
inhibition at 1 µM (PARP; [3]): 45%

CCCNC(=O)c1cccc(Nc2nc3cc(C(=O)O)ccc3c3sccc23)c1
IC50 [1, 4]: > 10 µM

O=C(NCCc1cnc[nH]1)c1ccc2c(c1)[nH]c(=O)c1ccsc12
inhibition at 1 µM (PARP; [3]): 83%
inhibition at 20 µM (PARP; Table 12): 97%
IC50 (PARP; Table 12): 0.2 µM

O=C(O)c1ccc2c(c1)nc(NCCc1ccccc1)c1ccsc12
IC50 [1, 2]: > 10 µM

N#Cc1ccc2c(c1)nc(Cl)c1ccsc12
IC50 [1, 2]: > 10 µM

CN(C)CCNc1nc2cc(-c3nnn[nH]3)ccc2c2sccc12
IC50 [1, 2]: > 10 µM

CN(C)C(=O)c1ccc2c(c1)[nH]c(=O)c1ccsc12
inhibition at 1 µM (PARP; [3]): 89%
inhibition at 20 µM (PARP; Table 12): 97%
IC50 (PARP; Table 12): 0.2 µM

O=C(NCc1ccccc1)c1ccc2c(c1)[nH]c(=O)c1ccsc12
inhibition at 1 µM (PARP; [3]): 36%

O=C(O)c1ccc2c(c1)nc(NCc1ccccn1)c1ccsc12
IC50 [1, 2]: > 10 µM

CC(C)(C)OC(=O)CCNC(=O)c1ccc2c(c1)[nH]c(=O)c1ccsc12
inhibition at 1 µM (PARP; [3]): 40%
inhibition at 20 µM (PARP; Table 12): 82%

COC(=O)c1ccccc1NC(=O)c1ccc2c(c1)[nH]c(=O)c1ccsc12
inhibition at 1 µM (PARP; [3]): 24%

c1ccc(Nc2nc3ccccc3c3sccc23)cc1
IC50 [1, 2]: > 10 µM

Clc1ccc(Nc2nc3cc(-c4nnn[nH]4)ccc3c3sccc23)cc1
IC50 [1, 2]: > 10 µM

COc1ccccc1CNC(=O)c1ccc2c(c1)[nH]c(=O)c1ccsc12
inhibition at 1 µM (PARP; [3]): 27%

COC(=O)c1ccc2c(c1)nc(Nc1ccccc1)c1ccsc12
IC50 [1, 2]: > 10 µM

O=C(c1ccc2c(c1)[nH]c(=O)c1ccsc12)N1CCNCC1
inhibition at 1 µM (PARP; [3]): 96%
IC50 (PARP; Table 12): 0.03 µM

O=C(Nc1ccccc1)c1ccc2c(c1)[nH]c(=O)c1ccsc12
inhibition at 1 µM (PARP; [3]): 0%
inhibition at 20 µM (PARP; Table 12): 22%

O=C(Nc1ccc(Cl)cc1)c1ccc2c(c1)[nH]c(=O)c1ccsc12
inhibition at 1 µM (PARP; [3]): 0%
inhibition at 20 µM (PARP; Table 12): 55%

COC(=O)c1ccc2c3sccc3c(=O)n(CCCO)c2c1
inhibition at 1 µM (PARP; [3]): 40%

COc1ccc(Nc2nc3cc(C(=O)O)ccc3c3sccc23)c(OC)c1
IC50 [1, 2]: > 10 µM

CN(C)CCNC(=O)c1cccc(Nc2nc3cc(C(=O)O)ccc3c3sccc23)c1
IC50 [1, 4]: > 10 µM

O=C(NCCCO)c1ccc2c(c1)nc(NCCCO)c1ccsc12
IC50 [1, 2]: > 10 µM

O=C(Nc1cccnc1)c1ccc2c(c1)[nH]c(=O)c1ccsc12
inhibition at 1 µM (PARP; [3]): 0%
inhibition at 20 µM (PARP; Table 12): 62%

N#Cc1ccc2c(c1)nc(Nc1ccccc1)c1ccsc12
IC50 [1, 2]: > 10 µM

O=C(O)c1ccc2c(c1)nc(Nc1ccc(F)cc1F)c1ccsc12
IC50 [1, 2]: > 10 µM

COC(=O)c1ccc2c(c1)nc(Nc1ccccc1)c1ncsc12
IC50 [1, 4]: > 10 µM

O=C(O)CNc1nc2cc(C(=O)O)ccc2c2sccc12
IC50 [1, 2]: > 10 µM

O=C(Nc1nccs1)c1ccc2c(c1)[nH]c(=O)c1ccsc12
inhibition at 1 µM (PARP; [3]): 0%
inhibition at 20 µM (PARP; Table 12): 52%

COc1cccc(Nc2nc3cc(-c4nnn[nH]4)ccc3c3sccc23)c1
IC50 [1, 2]: > 10 µM

O=C(O)c1ccc2c(c1)nc(Nc1ccc(N3CCOCC3)cc1)c1ccsc12
IC50 [1, 2]: > 10 µM

COC(=O)c1ccc2c(c1)[nH]c(=O)c1ccsc12
inhibition at 1 µM (PARP; [3]): 27%
inhibition at 20 µM (PARP; Table 12): 84%

CCOc1cccc(Nc2nc3cc(-c4nnn[nH]4)ccc3c3sccc23)c1
IC50 [1, 4]: > 10 µM

O=C(O)c1ccc2c(c1)nc(Nc1cccc(C(=O)NC3CC3)c1)c1ccsc12
IC50 [1, 4]: > 10 µM

O=C(O)c1ccc2c(c1)nc(NCCO)c1ccsc12
IC50 [1, 2]: > 10 µM

CN(c1ccccc1)c1nc2cc(C(=O)O)ccc2c2sccc12
IC50 [1, 2]: > 10 µM

O=C(NCCN1CCOCC1)c1ccc2c(c1)[nH]c(=O)c1ccsc12
inhibition at 1 µM (PARP; [3]): 77%
inhibition at 20 µM (PARP; Table 12): 96%
IC50 (PARP; Table 12): 0.5 µM

O=c1[nH]c(-c2ccc3c(c2)nc(Nc2ccccc2)c2ccsc23)no1
IC50 [1, 2]: > 10 µM

O=C(O)c1ccc2c(c1)nc(Nc1nc3ccccc3[nH]1)c1ccsc12
IC50 [1, 2]: > 10 µM

O=C(Nc1ccc(N2CCOCC2)cc1)c1ccc2c(c1)[nH]c(=O)c1ccsc12
inhibition at 1 µM (PARP; [3]): 0%
inhibition at 20 µM (PARP; Table 12): 37%

COc1ccc(OC)c(Nc2nc3cc(C(=O)O)ccc3c3sccc23)c1
IC50 [1, 2]: > 10 µM

O=C(O)c1ccc2c(c1)nc(Nc1cccc(O)c1)c1ccsc12
IC50 [1, 2]: > 10 µM

COc1cc(Nc2nc3cc(-c4nnn[nH]4)ccc3c3sccc23)ccc1F
IC50 [1, 4]: > 10 µM

CN(C)CCNc1nc2cc(-c3nnn[nH]3)ccc2c2cnccc12
IC50 ([1]; HCT-116, Table 18): > 10 µM

CN(C)CCNc1nc2cc(C(=O)O)ccc2c2ccccc12
inhibition at 1 µM (PARP; [5]): 15%

O=C(O)c1ccc2c(c1)nc(Nc1ccc(Cl)cc1)c1ccsc12
IC50 [1, 2]: > 10 µM

CN(C)CCNC(=O)c1ccc2c(c1)[nH]c(=O)c1ccsc12
inhibition at 20 µM (PARP; Table 12): 85%

O=C(O)c1ccc2c(c1)nc(NCCN1CCCC1)c1ccsc12
IC50 [1, 2]: > 10 µM

COC(=O)c1ccc2c(c1)nc(Cl)c1ccsc12 [drawing 552]
inhibition at 1 µM (PARP; [3]): 18%

O=C(O)c1ccc2c(c1)nc(N1CCCC1)c1ccsc12
IC50 [1, 2]: > 10 µM

NC(=O)c1ccc2c(c1)nc(Nc1ccccc1)c1ccsc12
IC50 [1, 2]: 9 µM

CS(=O)(=O)NC(=O)c1ccc2c(c1)nc(Nc1ccccc1)c1ccsc12
IC50 [1, 2]: > 10 µM

O=C(O)c1ccc2c(c1)nc(OCCCO)c1ccsc12
IC50 [1, 2]: > 10 µM

C#Cc1cccc(Nc2nc3cc(C(=O)O)ccc3c3sccc23)c1 [drawing 967]
IC50 [1, 4]: > 10 µM

O=C(O)c1ccc2c(c1)nc(N1CCc3ccccc31)c1ccsc12
IC50 [1, 2]: > 10 µM

O=C(O)c1ccc2c(c1)nc(NC1CC1)c1ccsc12
IC50 [1, 2]: > 10 µM

Clc1nc2ccccc2c2sccc12
IC50 [1, 2]: > 10 µM

CCN(c1ccccc1)c1nc2cc(C(=O)O)ccc2c2sccc12
IC50 [1, 2]: > 10 µM

O=C(O)c1ccc2c(c1)nc(Nc1ccc(F)cc1)c1ccsc12
IC50 [1, 2]: > 10 µM

O=C(O)c1ccc2c(c1)nc(Nc1cccc(C(=O)N3CCOCC3)c1)c1ccsc12
IC50 [1, 4]: > 10 µM

CN(C)CCNc1nc2cc(C#N)ccc2c2cnccc12
IC50 ([1]; HCT-116, Table 18): 1.6 µM

O=C(O)c1ccc2c(c1)nc(N1CCOCC1)c1ccsc12
IC50 [1, 2]: > 10 µM

c1cc2c(Nc3ccc4c(c3)OCCO4)nc3cc(-c4nnn[nH]4)ccc3c2s1
IC50 [1, 4]: > 10 µM

COC(=O)c1ccc2c(c1)nc(Cl)c1ccsc12 [drawing 842]
IC50 [1, 2]: > 10 µM

O=C(O)CNC(=O)c1cccc(Nc2nc3cc(C(=O)O)ccc3c3sccc23)c1
IC50 [1, 4]: > 10 µM

CNc1ncc2c(n1)c(NC1CC1)nc1cc(C(=O)O)ccc12
IC50 ([1]; HCT-116, Table 18): > 10 µM

O=C(O)c1ccc2c(c1)nc(Nc1cccc(Oc3ccccc3)c1)c1ccsc12
IC50 [1, 4]: > 10 µM

Fc1ccc(Nc2nc3cc(-c4nnn[nH]4)ccc3c3sccc23)cc1
IC50 [1, 2]: > 10 µM

Cc1ccccc1Nc1nc2cc(C(=O)O)ccc2c2sccc12
IC50 [1, 2]: > 10 µM

O=C(O)c1ccc2c(c1)nc(NCc1cccnc1)c1ccsc12
IC50 [1, 2]: > 10 µM

O=C(O)c1ccc2c(c1)nc(Nc1ccccc1O)c1ccsc12
IC50 [1, 2]: > 10 µM

O=C(O)c1ccc2c(c1)nc(NCCCO)c1ccsc12
IC50 [1, 2]: > 10 µM

— patent US9062043B2, “Fused tricyclic compounds as serine-threonine protein kinase and PARP modulators” (SENHWA BIOSCIENCES, INC., priority 2006, dated 2015)
